Measured values reported in patent publication US11787817B2, “Albofungin and its derivatives specifically recognize HIV-1 LTR-III G-quadruplex” (The Hong Kong University of Science and Technology, priority 2021, dated 2023).
Entries after “also recorded” stand apart in the source; their conditions may differ.

Columns and labels:
[1] = system: HIV-1 LTR III G4; assay: 1D 1H-NMR titration of HIV-1 LTR III G4 with compounds; assay type: binding; conditions: for binding affinity to LTR III G4 compared with albofungin / interaction / binding with LTR III G4: NMR titration; for interaction / binding with LTR III G4: result in words
Description: (§1) The single DNA nucleotides were purchased from Integrated DNA Technologies (IDT). The DNA sample at 100 μM (single strands) was then re-annealed by heating to 95° C. for 15 min, followed by slow cooling to room temperature overnight in an annealing buffer of 70 mM KCl and 20 mM potassium phosphate (pH 7.0). The final NMR samples contained 0.1 mM […] in 20 mM potassium phosphate buffer (pH 7.0) and 70 mM KCl.
(§2) To verify whether or not the compounds interact with G4 DNA, we performed NMR titration experiments by running one-dimensional (1D) ^1H NMR spectra at 25° C. All compounds were dissolved in isotope-labeled d6-DMSO (from Sigma-Aldrich) at about 50 mM concentration, working as stock solutions. To avoid chemical shift changes of G4 DNA resulted from d6-DMSO addition, 10 μL d6-DMSO was added into 500 μL of 0.1 mM G4 DNA solution in the NMR buffer (20 mM potassium phosphate buffer and 70 mM KCl, pH 7.0, 10% D2O) and then a 1D ^1H-NMR spectrum was recorded as a reference. During NMR titration experiments, each compound was added into G4 DNA solution, the maximal volume of 10 μL of each compound in d6-DMSO solution was thought as a final data point.

[2] = system: HIV-1 LTR II G4; assay: 1D 1H-NMR titration of HIV-1 LTR II G4; assay type: binding; conditions: ratio 1:0, 1:3 and 1:6; even at 1:6
Description: as §1, §2
(§3) Since not only LTR III can form noncanonical G4, LTR II and LTR IV can also form mutually exclusive G4 structures (24). […]

[3] = system: HIV-1 LTR IV G4; assay: 1D 1H-NMR titration of HIV-1 LTR IV G4; assay type: binding; conditions: ratio 1:0, 1:3 and 1:6; even at 1:6
Description: as §1, §2, §3

[4] = system: human telomeric variant htel21_T18 G4; assay: 1D 1H-NMR titration of human telomeric htel21_T18 G-quadruplex; assay type: binding; conditions: concentration ratio 1:5
Description: as §1, §2
The LTR sequence and other G-rich DNA or RNA strands can form polymorphic G4s. For example, a chair-type conformation is adopted by a human telomeric variant, htel21_T18 (d[(GGGTTA)2GGGTTTGGG]) (SEQ ID NO: 1) (25). […]

[5] = system: RRM1,2 domain of hnRNP A2; assay: 1H-15N HSQC titration of RRM1,2 domain of hnRNP A2 with compound; assay type: binding, human; conditions: titrated at 1:10
Description: The coding sequence of the RRM domain of hnRNP A2 was inserted into the expression vector pET-28a(+) (Novagen). The protein was expressed in Escherichia coli BL21(DE3) at 37° C. for 5 h. Cell lysates were subject to affinity purification with the nickel-nitrilotriacetic acid resin (Qiagen) followed by the cleavage of the hexahistidine tag with the P3C enzyme. The resulting protein was further purified on a Superdex 75 column (GE Healthcare). For the NMR studies, the samples uniformly labeled with ^15N isotopes were expressed and purified as described above, except that the cells were grown in an M9 medium containing [^15N] ammonium chloride (Cambridge Isotopes) and D-glucose.
The titration experiments were performed by recording a series of 2D ^15N-HSQC spectra on uniformly ^15N-labeled RRM domain (˜0.1 mM) in the presence of different amounts of DNA ranging from 0 to 0.5 mM at 25° C. The protein sample and the stock solutions of DNA were all prepared in 20 mM potassium phosphate buffer and 70 mM KCl, pH 7.0, 10% D2O.
All compounds were dissolved in isotope-labeled d6-DMSO (from Sigma-Aldrich) at about 50 mM concentration, working as stock solutions. […]

[6] = system: LTR III G4 / hnRNP A2 interaction; assay: 1D 1H-NMR titration of LTR III G4/albofungin complex with RRM1,2 domain of hnRNP A2; assay type: binding; conditions: G4:albofungin 1:3; G4:albofungin:hnRNP A2 1:3:2
Description: as §2
LTR G4 region is under control of two nuclear proteins: nucleolin, which upon binding increases LTR G4 stability and thus silences transcription (26); the human ribonucleoprotein (hnRNP) A2/B1, which can unfold the LTR G4 efficiently and thus enhances HIV-1 transcription (27). To sum up, G4 binding proteins perform like a switch in the determination of G4's conformation to control viral transcription modulation. Therefore, the RRM domain of human ribonucleoprotein (hnRNP A2) was expressed and purified, and the NMR titration of LTR III G4 with the RRM domain of hnRNP A2 was performed. […]

[7] = Solubility in the solvent system of the NMR titration; assay type: physicochemical; conditions: in solution / solvent system at the test concentration
Description: as §2

[8] = system: LTR-III G4; assay: CD spectroscopy of LTR-III G4 with compound; design: species or system HIV-1; conditions: increasing compound concentration ratio, 25° C., 220-320 nm
Description: Circular dichroism (CD) spectra were recorded on Chirascan CD spectrometer at 25° C. from 220 nm to 320 nm under liquid mode; a 1 mm path-length quartz cuvette was used in the test.
Except for NMR titration and X-ray diffraction; Circular Dichroic (CD) spectroscopy is another frequently used method for G4 studies because it is very sensitive to observing slight changes in DNA conformation. (28) Due to its sensitivity, easy manipulation of studied samples, and relatively cheap, CD spectroscopy is regarded as a crucial complementary method in G4 studies; meanwhile, LTR-III G4's structure has only been resolved using NMR elucidation in K^+ solution, a typical hybrid conformation; and different G4 conformation has distinct CD spectra. So CD test was conducted to see if 477-albo will change the conformation of LTR-III G4.

[9] = system: HIV-1 U3 RNA G4; assay: 1D 1H-NMR titration of HIV-1 U3 RNA G4; assay type: binding; conditions: ratio 1:0.5, 1:1, 1:3 and 1:5
Description: as §1
as §2, with “point. […]” for “point.”

[10] = system: DNA and RNA G4s of LTR-III; conditions: literature; cited from earlier work
[11] = system: Epstein-Barr viruses; conditions: literature (15); cited from earlier work
[12] = system: human telomeric G4s; conditions: literature (32); cited from earlier work

Sequence of RRM1,2 domain of hnRNP A2 (P22626 21-191): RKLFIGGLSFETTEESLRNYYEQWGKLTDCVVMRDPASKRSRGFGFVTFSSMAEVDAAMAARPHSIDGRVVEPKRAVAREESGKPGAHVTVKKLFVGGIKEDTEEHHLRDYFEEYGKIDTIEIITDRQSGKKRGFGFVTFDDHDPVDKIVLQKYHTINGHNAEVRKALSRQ

Row | Molecule | binding affinity to LTR III G4 compared with albofungin [1] | interaction / binding with LTR III G4 [1] | also measured
1 | CO[C@@H]1CC[C@H](O)c2c1oc1c3c4c(c(O)c1c2=O)-c1c(cc2cc(C)n(C)c(=O)c2c1O)C[C@H]4OCO3 [519-albo] | much weaker than albofungin | bind to LTR III G4 | –
2 | CO[C@@H]1CC[C@H](O)c2c1oc1c3c4c(c(O)c1c2=O)-c1c(cc2cc(C)[nH]c(=O)c2c1O)C[C@H]4OCO3 [505-albo] | much weaker than albofungin | bind to LTR III G4 | –
3 | albofungin | – | potent interaction | chemical shift changes in the imino region of the 1D 1H-NMR spectrum of LTR III G4 ([1]; G4:compound concentration ratio 1:0.5, 25° C.): significant chemical shift changes; chemical shift changes of LTR II G4 1D 1H NMR spectra [2]: no significant chemical shift changes; chemical shift changes of LTR IV G4 1D 1H NMR spectra [3]: no significant chemical shift changes; chemical shift changes of htel21_T18 1D 1H NMR spectra [4]: no chemical shift changes; binding to the RRM domain of hnRNP A2 [5]: did not bind; changes in imino region of LTR III G4/albofungin complex on adding RRM1,2 domain of hnRNP A2 [6]: no changes in the profile of the imino region; solubility [7]: poor solubility
4 | COc1c2c(c(O)c3c(=O)c4c(oc13)[C@H](O)CC[C@@H]4O)-c1c(cc3cc(C)[nH]c(=O)c3c1O)CC2 [477-albo] | much weaker than albofungin | specific bind with LTR-III DNA G4; also recorded: bind to LTR III G4 | new imino shifts indicating conformation change of LTR III G4 ([1]; concentration ratio increased to 1:3, between 13 to 14 ppm and 9.5 to 10.5 ppm): several strange shifts; trend of chemical shift changes of LTR III G4 imino region on titration ([1]; ratio 1:0 to 1:8): clear trend of chemical shifts changes; conformation change of LTR-III G4 in CD spectra [8]: noticeable conformation changes from a typical hybrid form into parallel form; binding to U3 RNA G4 (imino region of 1D 1H-NMR spectra) [9]: not U3 RNA G4; also recorded: did not change; solubility [7]: better solubility
5 | Cc1cc2cc3c(c(O)c2c(=O)n1N)-c1c2c(c4oc5c(c(=O)c4c1O)[C@@H](O)CC[C@H]5O)OCO[C@@H]2C3 [506-2-albo] | much weaker than albofungin | bind to LTR III G4 | –
6 | COc1c2c(c(O)c3c(=O)c4c(oc13)[C@H](O)CC[C@@H]4O)-c1c(cc3cc(C)n(N)c(=O)c3c1O)CC2 [492-albo] | much weaker than albofungin | bind to LTR III G4 | –
7 | CN(C)c1ccc(Nc2c3ccc(NC(=O)CCN4CCCC4)cc3nc3cc(NC(=O)CCN4CCCC4)ccc23)cc1 [BRACO-19] | – | – | binding to DNA and RNA G4s of LTR-III [10]: binds both DNA and RNA G4s of LTR-III; activity against Epstein-Barr viruses [11]: active against; activity against human telomeric G4s [12]: active against
8 | CO[C@@H]1CC[C@H](O)c2c1oc1c3c4c(c(O)c1c2=O)-c1c(cc2cc(C)n(NC(C)=O)c(=O)c2c1O)C[C@H]4OCO3 [562-albo] | much weaker than albofungin | bind to LTR III G4 | –
9 | Cc1cc2cc3c(c(O)c2c(=O)n1N)-c1c2c(c4oc5c(c(=O)c4c1O)[C@@H](O)[C@@H](O)CC5)OCO[C@@H]2C3 [506-1-albo] | much weaker than albofungin | bind to LTR III G4 | –
10 | CO[C@@H]1CC[C@H](O)c2c1oc1c3c4c(c(O)c1c2=O)-c1c(cc2c(Cl)c(C)n(N)c(=O)c2c1O)C[C@H]4OCO3 [chloroalbofungin] | – | poor binding affinity | –
